Source: patent US20040223983A1, “Pharmaceutical preparations, use of these preparations and process for increasing the biovailability of pharmaceutical substances to be administered perorally” (priority 2002, published 2004)
In brackets after ≈: the same amount, converted by molar mass. Several values for one entry are separate records, joined by “and”; a condition that tells them apart may be missing. Identical values can stand only once. Like-named read-outs stand apart in the source and are kept apart here.

Assays:
[1] = target: T1, Recombinant, Human Cytochrome P450 2C19 Isoenzyme (Homo sapiens, UniProt P33261); test: Cytochrome P450 inhibition test, in vitro CYP test (2C19); format: biochemical
T1 construct: purchased Gentest Corp., Woburn, Mass., USA
Description: (§1) In this connection, the inhibition of the enzymes is characterized via the concentration (IC50, μg/ml) of the adjuvants, in which 50% of the respective isoenzymes are inhibited.
(§2) Stock solutions of the respective test substances or test formulations are produced in acetonitrile and diluted with incubation buffer (3 mg/ml in 2% acetonitrile in the batch); additional concentrations are produced by serial dilution. Concentration of the acetonitrile is at most 2% in all batches.
The incubations are set in 96-hole plate format with 200 μl of total volume in double values. The background batch controls the fluorescence of the batch without enzymes and formulations according to the invention, and the inherent fluorescence of the substances is determined in the buffer dilution. The preparation of the dilutions and the pipetting diagram corresponds to the original instructions of the manufacturer of the test kit (Gentest Corp., Woburn, Mass., USA).
(§3) The batches are started by adding the enzyme/substrate mixture, shaken for 30 or 45 minutes in an incubator at 37° C. and then interrupted with 50 μl of stop solution. The plates are briefly shaken, and the fluorescence intensity is measured in the plate-fluorescence reader at the wavelengths for excitation or emission.
(§4) The development of the fluorescent product forms the basis for the calculation. […] The IC50 value is calculated from the concentration-dependent inhibition.

Lipophilicity (log P) = format: physicochemical
17β-HSD2 = target: T2, 17β-HSD2 (Homo sapiens, UniProt P37059); test: Metabolic stability, in vitro 17β-HSD2 test on intestinal microsomes; format: in vitro ADME; settings: % of starting value of AE2, n=2
T2 construct: Intestinal microsomes (InVitro Technologies); protein content: 24 mg/ml; tissue InVitro Technologies; host or cells: intestinal microsomes
T2 sequence (P37059 1-387): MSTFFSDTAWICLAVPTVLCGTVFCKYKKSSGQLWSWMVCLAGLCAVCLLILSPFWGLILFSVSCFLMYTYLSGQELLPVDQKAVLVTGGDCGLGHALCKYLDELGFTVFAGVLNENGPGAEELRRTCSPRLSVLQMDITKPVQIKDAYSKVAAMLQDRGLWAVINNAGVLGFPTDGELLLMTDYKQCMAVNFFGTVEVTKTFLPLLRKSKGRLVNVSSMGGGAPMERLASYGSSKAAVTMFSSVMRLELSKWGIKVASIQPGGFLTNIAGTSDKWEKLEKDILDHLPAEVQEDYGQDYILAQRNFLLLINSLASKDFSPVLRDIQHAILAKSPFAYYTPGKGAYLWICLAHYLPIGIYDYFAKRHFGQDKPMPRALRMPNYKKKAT
Description: Pharmaceutical preparations according to the invention that contain steroids that have a secondary, beta-position hydroxyl group in 17-position of the sterane skeleton inhibit the 17β-HSD 2, so that less 17-keto-biotransformation product is produced. The inhibition potential is directly proportional to the mass proportion of the formulation according to the invention. […] Example 5; FIG. 3). It can be seen from this that formulations according to the invention are suitable to inhibit 17β-HSD 2.
17β-HSD2 test on microsomes of intestinal origin. Metabolic stability of 0.3 μM of AE2 in an intestinal microsome suspension and production of 17-ketone metabolites after 30 minutes based on the concentration (m/v) of a formulation according to the invention that contains Cremophor®EL and Transcutol®P, Smix 9:1, 20% (m/m), Miglyol®812.
A formulation according to the invention, produced analogously to Example 1a) and containing Cremophor®EL and Transcutol®P, Smix 9:1, 20% (m/m) Miglyol®812, is tested for its property to inhibit 17β-HSD2 in intestinal microsomes. 17β-HSD2 mediates the intestinal enzymatic dehydrogenation of an OH group in 17-position of the sterane skeleton to form a ketone group. An inhibition of the 17β-HSD2 is measured via a test substance AE2, which is the substrate of this enzyme, and is biotransformed into a 17-keto product. The ratio of the AE2 concentration and the 17-ketone-biotransformation product is determined at specific times (0, 10, 20, 30, 45 and 60 minutes) in each case for the starting-AE2 concentration in % (m/m).
For these tests, the following materials are used:
Na-Phosphate buffer: 100 mmol of Na2HPO4×2H2O and 100 mmol of NaH2PO4×H2O
Test substance solution of AE2: AE2 50 μmol in MeOH (in the test batch 0.3 μmol)
Formulation batches of the above-mentioned formulation according to the invention (% m/v): 0%, 0.00441%, 0.0147%, 0.0441%, 0.147% and 0.441% formulation in Na-phosphate buffer (in the test batch 0%, 0.003%, 0.01%, 0.03%, […] and 0.3% formulation).
Cofactor solution: 2 ml of glucose-6-phosphate (160 mmol)/MgCl2 (80 mmol)-mixture is added to 400 μl of a glucose-6-phosphate-dehydrogenase solution, then 15.6 mg of NADP and 13.4 mg of NAD are added.
Microsome solution: Intestinal microsomes (InVitro Technologies; protein content: 24 mg/ml; CYP450 content; 0.058 nmol/mg of protein) Thawed in a water bath at 37° C. (˜60 seconds) and diluted to a concentration of 5 mg/ml of protein with Na-phosphate buffer.
In each case, 170 μl/well of the formulation buffer and 5 μl/well of test substance solution of AE2 are introduced into the corresponding wells, whereby double values are set for each measuring time (0, 10, 20, 30, 45 and 60 minutes).
In each case, 250 μl of ice-cold MeOH is added at the 0-minute values. Immediately after, 25 μl of microsome solution and 50 μl of cofactor solution are added to all wells. The samples of the 0-minute values are stored without incubation at ˜−20° C. for about 24 hours. The other samples are incubated in each case for 10, 20, 30, 45 and 60 minutes at 37° C., and the dehydrogenation reaction is stopped after these times by the addition of 250 μl of ice-cold MeOH in each case. The samples are stored for about 24 hours before they are measured by HPLC at ˜−20° C. and they are centrifuged before HPLC analysis at 3000 rpm, whereby the supernatant is measured.

[2] = target: T3, Recombinant, Human Cytochrome P450 2C9 Isoenzyme (Homo sapiens, UniProt P11712)
Description: as §1, §2
(§5) The incubations are set in 96-hole plate format with 200 μl of total volume in double values. The background batch controls the fluorescence of the batch without enzymes and formulations according to the invention, and the inherent fluorescence of the substances is determined in the buffer dilution. […]
as §3, §4

[3] = target: T4, Recombinant, Human Cytochrome P450 3A4 Isoenzyme (Homo sapiens, UniProt P08684)
Description: as §1, §2, §5, §3, §4

[4] = target: human, intestinal P-gp- transporters (Homo sapiens, UniProt P08183); test: P-gp- transporter test (calcein AM, MATU cells); settings: ratio of fluorescence intensity test solution to blank
Description: In this test, the activity to inhibit the transporters is characterized via ratio (R) that indicates the ratio of the fluorescence intensity of the test solution to the fluorescence intensity of the blank and is directly proportional to inhibiting the P-gp- transporters. Fluorescence intensity test solution corresponds to fluorescence intensity, measured at 485/535 nm (excitation or emission), of cells that contain test solution and calcein AM working solution.
For this purpose, a suspension of human breast cancer cell lines, MATU-cell lines (Max-Dellbrück-Centrum (MDC)-Berlin-Buch; 40,000 cells/well/200 μl) is first added to a microtiter plate (Greiner black 96 plates, clear bottom, sterile). […]
Then, the addition of calcein AM working solution (20 μl/well) to all wells is carried out, i.e., with and without test solution. […] After incubation is completed, the fluorescence is measured in a plate-fluorescence reader (Fluostar®, B&L Systems, Maarssen) at 485/535 nm (excitation or emission).
The following ratio: ratio (R) of the fluorescence intensity of the test solution to the fluorescence intensity of the blank is determined.
The fluorescence intensity of the test solution corresponds to the fluorescence intensity, measured at 485/535 nm (excitation or emission), of the cells that contain the test solution and the calcein AM working solution.

[5] = target: T3, Recombinant, Human Cytochrome P450 2C9 Isoenzyme; test: Cytochrome P450 inhibition test, in vitro CYP test (2C9); settings: substrate 7-MFC, 45 minutes, 37° C.
Description: as §1, §2, §5, §3, §4

[6] = target: T4, Recombinant, Human Cytochrome P450 3A4 Isoenzyme; test: Cytochrome P450 inhibition test, in vitro CYP test (3A4); settings: substrate 7-BFC, 30 minutes, 37° C.
Description: as §1, §2, §5, §3, §4

T1 sequence (P33261 whole entry): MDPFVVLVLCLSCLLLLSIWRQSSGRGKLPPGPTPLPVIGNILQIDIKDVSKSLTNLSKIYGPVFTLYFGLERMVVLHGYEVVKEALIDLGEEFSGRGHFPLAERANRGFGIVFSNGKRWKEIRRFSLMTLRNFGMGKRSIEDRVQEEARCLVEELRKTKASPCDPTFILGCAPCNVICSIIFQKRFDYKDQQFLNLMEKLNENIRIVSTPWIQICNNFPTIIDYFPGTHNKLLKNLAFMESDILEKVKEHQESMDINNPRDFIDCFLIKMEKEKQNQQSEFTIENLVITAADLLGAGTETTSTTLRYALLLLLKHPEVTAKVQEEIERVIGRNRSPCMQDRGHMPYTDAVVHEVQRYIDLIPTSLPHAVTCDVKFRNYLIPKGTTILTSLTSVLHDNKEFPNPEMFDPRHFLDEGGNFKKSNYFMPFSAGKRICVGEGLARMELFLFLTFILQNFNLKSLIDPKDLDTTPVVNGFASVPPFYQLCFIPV
T4 sequence (P08684 whole entry): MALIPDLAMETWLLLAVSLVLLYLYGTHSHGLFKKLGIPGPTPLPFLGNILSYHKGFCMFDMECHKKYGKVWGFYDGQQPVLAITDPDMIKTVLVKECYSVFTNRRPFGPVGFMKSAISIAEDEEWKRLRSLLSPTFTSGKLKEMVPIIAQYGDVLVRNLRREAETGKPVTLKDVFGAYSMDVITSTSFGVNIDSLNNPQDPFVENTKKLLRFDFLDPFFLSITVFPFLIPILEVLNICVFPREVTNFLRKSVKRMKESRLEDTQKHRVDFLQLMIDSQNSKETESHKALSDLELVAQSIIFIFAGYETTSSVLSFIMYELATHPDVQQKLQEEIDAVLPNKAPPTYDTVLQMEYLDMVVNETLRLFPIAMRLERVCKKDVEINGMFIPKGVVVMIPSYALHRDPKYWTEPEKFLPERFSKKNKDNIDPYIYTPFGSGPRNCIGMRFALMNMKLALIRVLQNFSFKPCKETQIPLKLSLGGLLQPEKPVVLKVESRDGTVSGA
T3 sequence (P11712 whole entry): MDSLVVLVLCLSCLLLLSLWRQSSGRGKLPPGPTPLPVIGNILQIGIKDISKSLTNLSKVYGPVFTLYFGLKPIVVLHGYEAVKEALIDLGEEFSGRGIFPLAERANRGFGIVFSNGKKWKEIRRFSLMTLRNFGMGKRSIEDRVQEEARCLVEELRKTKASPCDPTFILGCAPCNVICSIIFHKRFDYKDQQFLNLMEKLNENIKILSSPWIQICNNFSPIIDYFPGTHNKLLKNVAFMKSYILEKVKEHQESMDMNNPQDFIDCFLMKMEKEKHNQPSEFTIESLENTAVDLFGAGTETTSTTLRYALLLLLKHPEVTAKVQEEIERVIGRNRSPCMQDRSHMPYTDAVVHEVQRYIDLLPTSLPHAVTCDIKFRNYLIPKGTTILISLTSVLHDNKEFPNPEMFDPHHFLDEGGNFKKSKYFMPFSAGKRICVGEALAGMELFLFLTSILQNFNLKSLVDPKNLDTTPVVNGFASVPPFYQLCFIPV
Sequence of human, intestinal P-gp- transporters (P08183 whole entry): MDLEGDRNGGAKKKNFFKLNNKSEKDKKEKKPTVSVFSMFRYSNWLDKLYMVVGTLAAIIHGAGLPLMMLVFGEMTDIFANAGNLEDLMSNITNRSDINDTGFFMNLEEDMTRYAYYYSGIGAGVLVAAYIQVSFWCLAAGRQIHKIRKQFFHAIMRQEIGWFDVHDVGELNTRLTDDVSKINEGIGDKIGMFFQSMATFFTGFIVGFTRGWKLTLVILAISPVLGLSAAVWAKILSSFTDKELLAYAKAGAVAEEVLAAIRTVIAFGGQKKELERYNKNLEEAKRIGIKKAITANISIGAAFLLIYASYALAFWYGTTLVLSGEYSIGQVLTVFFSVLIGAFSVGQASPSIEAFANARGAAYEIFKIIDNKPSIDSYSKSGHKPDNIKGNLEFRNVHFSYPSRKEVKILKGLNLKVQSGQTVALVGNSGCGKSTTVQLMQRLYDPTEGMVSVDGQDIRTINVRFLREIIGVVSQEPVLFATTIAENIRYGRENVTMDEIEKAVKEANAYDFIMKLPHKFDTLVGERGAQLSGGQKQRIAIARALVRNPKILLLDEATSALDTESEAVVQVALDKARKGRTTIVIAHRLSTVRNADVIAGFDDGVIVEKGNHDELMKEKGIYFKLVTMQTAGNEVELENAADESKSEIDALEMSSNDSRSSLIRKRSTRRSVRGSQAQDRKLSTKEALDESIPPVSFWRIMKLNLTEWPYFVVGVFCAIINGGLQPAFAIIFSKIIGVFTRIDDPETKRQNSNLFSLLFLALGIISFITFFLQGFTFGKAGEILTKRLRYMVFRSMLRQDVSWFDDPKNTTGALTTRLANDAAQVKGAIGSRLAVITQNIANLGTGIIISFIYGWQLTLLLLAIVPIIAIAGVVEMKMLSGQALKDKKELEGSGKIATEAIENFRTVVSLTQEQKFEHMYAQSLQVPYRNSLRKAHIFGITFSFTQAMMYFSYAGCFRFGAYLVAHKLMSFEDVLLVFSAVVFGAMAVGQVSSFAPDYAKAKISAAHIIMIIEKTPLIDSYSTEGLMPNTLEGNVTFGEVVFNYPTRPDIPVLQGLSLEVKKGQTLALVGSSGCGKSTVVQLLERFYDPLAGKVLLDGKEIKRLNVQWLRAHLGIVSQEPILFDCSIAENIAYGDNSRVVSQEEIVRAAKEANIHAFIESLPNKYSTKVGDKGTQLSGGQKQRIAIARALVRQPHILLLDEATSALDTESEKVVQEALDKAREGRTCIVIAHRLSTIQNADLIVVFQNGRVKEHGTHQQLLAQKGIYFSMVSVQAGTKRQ

With “PEG-40-hydrogenated castor oil [Cremophor ® RH40]” the “IC50 CYP-2C19” value [1] was 11 mg/L.

With `CN(CCCCCCC(F)(F)C(F)(F)C(F)(F)C(F)(F)F)CCCCC[C@@H]1Cc2cc(O)ccc2[C@@H]2[C@@H]1[C@@H]1CC[C@H](O)[C@@]1(C)C[C@@H]2F` [AE2, 11β-fluoro-7α-{5-[methyl-(7,7,8,8,9,9,10,10,10-nonafluorodecyl)amino]pentyl}estra-1,3,5(10)-triene-3,17β-diol] the logP (Lipophilicity (log P)) was 5.9, the “amount of genuine AE2 after 30 minutes in the microsome suspension” value (shortened to “amount of genuine AE2 after 30 minutes”) (17β-HSD2; 0.0% Cremophor EL/Miglyol 812/Transcutol P (72T/20T/8T) in test batch) was 64% and 66% and the “amount of genuine AE2 after 30 minutes” value (17β-HSD2; 0.003% Cremophor EL/Miglyol 812/Transcutol P (72T/20T/8T) in test batch) was 70% and 71%. The “amount of genuine AE2 after 30 minutes” value (17β-HSD2; 0.01% Cremophor EL/Miglyol 812/Transcutol P (72T/20T/8T) in test batch) was 75% and 76%, the “amount of genuine AE2 after 30 minutes” value (17β-HSD2; 0.03% Cremophor EL/Miglyol 812/Transcutol P (72T/20T/8T) in test batch) was 89% and 83% and the “amount of genuine AE2 after 30 minutes” value (17β-HSD2; 0.1% Cremophor EL/Miglyol 812/Transcutol P (72T/20T/8T) in test batch) was 109% and 114%. For the same molecule, the “amount of genuine AE2 after 30 minutes” value (17β-HSD2; 0.3% Cremophor EL/Miglyol 812/Transcutol P (72T/20T/8T) in test batch) was 106% and 109%.

In the case of Polysorbate 80 [Tween ® 80], the “IC50 CYP-2C19” value [1] is reported as 8.4 mg/L.

For PEG-400-monoricinoleate [Estax ® 54], the “IC50 CYP-2C19” value [1] was 0.7 mg/L.

With Refined castor oil (RIZ) the “IC50 CYP-2C19” value [1] was >3000 mg/L.

In the case of `CCCCCCCC/C=C\CCCCCCCC(=O)OCC` [Ethyl oleate, Ethyl oleate (EO)], the “IC50 CYP-2C9” value [2] is reported as 195 mg/L (≈ 0.628 mM), the “IC50 CYP-3A4” value [3] is reported as 117 mg/L (≈ 0.377 mM) and the “IC50 CYP-2C19” value [1] is reported as 325 mg/L (≈ 1.05 mM).

`CN(CCCCC[C@@H]1Cc2cc(O)ccc2[C@@H]2[C@@H]1[C@@H]1CC[C@H](O)[C@@]1(C)C[C@@H]2F)CCCSCCCC(F)(F)C(F)(F)F` [AE1, 11β-fluoro-7α-{5-[N-methyl-N-3-(4,4,5,5,5-pentafluoropentylthio)-propylamino]-pentyl}-estra-1,3,5(10)-triene-3,17β-diol] gave an R ([4]; P-gp substrate) of 2.43.

In the case of “Polyethylene glycol-35-castor oil [Cremophor ® EL]”, the “IC50 CYP-2C19” value [1] is reported as 10 mg/L.

For `CCOCCOCCO` [Transcutol ® P, Ethoxydiglycol], the “IC50 CYP-2C9” value [5] was 1500 mg/L (≈ 11.2 mM), the “IC50 CYP-3A4” value [6] was 755 mg/L (≈ 5.63 mM) and the “Maximum R-Value” ([4]; calcein AM, 485/535 nm, MATU cells, test solutions 0.3 to 33.3 μmol) was 1.18. The “IC50 CYP-2C19” value [1] was 1400 mg/L (≈ 10.4 mM).

For “C8-C12 triglycerides (MCT) [Miglyol ® 812]”, the “IC50 CYP-2C19” value [1] was 100 mg/L.
